These results are taken from patent US11866430B2, “Naphthyridinone compounds useful as T cell activators” (priority 2018, dated 2024).

One assay concerns the target human DGKα (Homo sapiens (Human), UniProt P23743). In words: DGKα LIPGLO assay (extruded liposome substrate). The class given is biochemical. The method in brief: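 Human full-length DGKα, His-tagged and produced in Sf9 cells, assayed at 20 nM (4× stock) on extruded liposomes of PS, 0.25 mM DAG and 2.75 mM PC, preincubated 10 min. Reaction started with 300 μM ATP (stock) and ran 1 h in MOPS pH 7.5/MgCl2/CaCl2/DTT buffer.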

The target in another assay is human DGKζ (Homo sapiens (Human), UniProt Q13574). Nature of the assay: DGKζ LIPGLO assay (extruded liposome substrate). Type of assay: biochemical. Put shortly:
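Sf9-derived DGKζ was premixed 10 min with PC/DAG/PS liposomes (100 nm extruded) in MOPS pH 7.5 buffer containing NaCl, MgCl2, CaCl2 and DTT.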

The mark [1] stands for this setting: extruded liposome substrate, read-out: DGKζ LIPGLO IC50.

Molecules are shown by their SMILES. Like-named read-outs stand apart in the source and are kept apart here.

As usually defined, the IC50 is the point on the concentration scale where inhibition reaches its midpoint.

Sequence of human DGKα (P23743 other isoform, or with tags, fused parts or gaps): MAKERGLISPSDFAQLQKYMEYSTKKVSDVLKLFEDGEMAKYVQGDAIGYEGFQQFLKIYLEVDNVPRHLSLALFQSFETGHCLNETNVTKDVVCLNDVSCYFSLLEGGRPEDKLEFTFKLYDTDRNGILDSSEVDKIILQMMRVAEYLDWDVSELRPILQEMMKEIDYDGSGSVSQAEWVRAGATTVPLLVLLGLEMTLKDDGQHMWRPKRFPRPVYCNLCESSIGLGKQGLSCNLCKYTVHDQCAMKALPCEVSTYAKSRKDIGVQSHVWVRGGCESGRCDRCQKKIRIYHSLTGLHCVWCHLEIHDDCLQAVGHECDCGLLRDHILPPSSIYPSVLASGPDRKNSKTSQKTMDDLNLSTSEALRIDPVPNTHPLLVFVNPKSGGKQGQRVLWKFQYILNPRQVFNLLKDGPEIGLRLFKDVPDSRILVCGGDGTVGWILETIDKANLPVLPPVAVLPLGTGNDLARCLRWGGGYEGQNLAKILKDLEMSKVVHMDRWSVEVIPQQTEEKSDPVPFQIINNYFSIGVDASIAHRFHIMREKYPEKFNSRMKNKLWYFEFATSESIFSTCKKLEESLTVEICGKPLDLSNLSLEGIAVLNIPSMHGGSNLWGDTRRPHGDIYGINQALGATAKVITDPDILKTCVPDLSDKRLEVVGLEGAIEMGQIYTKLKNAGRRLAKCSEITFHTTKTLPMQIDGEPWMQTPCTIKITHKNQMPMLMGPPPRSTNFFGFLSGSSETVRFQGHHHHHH
Sequence of human DGKζ (Q13574 other isoform, or with tags, fused parts or gaps): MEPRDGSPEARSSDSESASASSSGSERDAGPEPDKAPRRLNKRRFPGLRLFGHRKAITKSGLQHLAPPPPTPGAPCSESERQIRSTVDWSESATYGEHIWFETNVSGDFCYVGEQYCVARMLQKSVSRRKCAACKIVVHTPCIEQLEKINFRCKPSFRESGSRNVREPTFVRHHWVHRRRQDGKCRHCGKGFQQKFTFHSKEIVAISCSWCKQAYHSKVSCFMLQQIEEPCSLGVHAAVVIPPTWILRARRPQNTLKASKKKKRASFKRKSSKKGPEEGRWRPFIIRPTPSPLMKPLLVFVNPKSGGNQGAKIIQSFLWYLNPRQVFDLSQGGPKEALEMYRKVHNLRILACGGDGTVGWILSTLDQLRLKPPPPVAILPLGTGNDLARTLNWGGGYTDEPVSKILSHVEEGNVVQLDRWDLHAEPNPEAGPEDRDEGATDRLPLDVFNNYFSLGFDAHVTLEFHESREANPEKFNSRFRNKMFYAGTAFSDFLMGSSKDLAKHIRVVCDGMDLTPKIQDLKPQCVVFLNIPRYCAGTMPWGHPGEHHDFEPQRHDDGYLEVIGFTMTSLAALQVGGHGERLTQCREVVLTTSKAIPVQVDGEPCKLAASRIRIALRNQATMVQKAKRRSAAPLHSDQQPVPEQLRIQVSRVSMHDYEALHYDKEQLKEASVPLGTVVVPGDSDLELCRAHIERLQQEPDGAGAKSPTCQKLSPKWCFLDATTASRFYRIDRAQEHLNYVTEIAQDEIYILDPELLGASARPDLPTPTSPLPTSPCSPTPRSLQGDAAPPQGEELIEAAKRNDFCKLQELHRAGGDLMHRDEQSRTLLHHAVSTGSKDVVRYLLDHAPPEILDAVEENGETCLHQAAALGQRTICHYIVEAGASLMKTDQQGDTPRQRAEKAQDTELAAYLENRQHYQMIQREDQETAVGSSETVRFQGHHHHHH

Regarding `COc1cc(F)ccc1C(c1ccc(F)cc1)N1CCN(c2c(C#N)c(=O)n(C)c3ccc(C#N)nc23)CC1` (single isomer, unassigned) [Example 406, 8-{4-[(4-fluoro-2-methoxyphenyl)(4-fluorophenyl)methyl]piperazin-1-yl}-5-methy-6-oxo-5,6-dihydro-L5-naphthyridine-2,7-dicarbonitrile], the IC50 at human DGKα was determined as 13 µM; at human DGKζ (setting [1]) it was 3.1 µM.
Turning to `COc1cc(F)ccc1C(c1ccc(F)cc1)N1CCN(c2c(C#N)c(=O)n(C)c3ccc(C#N)nc23)CC1` (single isomer, unassigned) [Example 407, 8-{4-[(4-fluoro-2-methoxyphenyl)(4-fluorophenyl)methyl]piperazin-1-yl}-5-methy-6-oxo-5,6-dihydro-L5-naphthyridine-2,7-dicarbonitrile], the IC50 was 0.96 µM against human DGKα and 0.45 µM at human DGKζ (setting [1]).
As to `Cn1c(=O)c(C#N)c(N2CCN(C(c3ccc(F)cc3)c3ccccc3O)CC2)c2nc(C#N)ccc21` (stereo not drawn) [Example 11, 8-{4-[(4-fluorophenyl)(2-hydroxyphenyl)methyl]piperazin-1-yl}-5-methyl-6-oxo-5,6-dihydro-1,5-naphthyridine-2,7-dicarbonitrile], the IC50 at human DGKα was found to be 1.8 µM; at human DGKζ (DGKζ LIPGLO IC50, extruded liposome substrate) it was 1.8 µM.
`Cn1c(=O)c([N+](=O)[O-])c(N2CCN(CC(O)c3ccc(F)cc3)CC2)c2nc(C#N)ccc21` (stereo not drawn) [Example 36, 8-{4-[2-(4-fluorophenyl)-2-hydroxyethyl]piperazin-1-yl}-5-methyl-7-nitro-6-oxo-5,6-dihydro-1,5-naphthyridine-2-carbonitrile]: the IC50 against human DGKα turned out to be 6.8 µM; on human DGKζ (setting [1]), 18 µM.
As for `CCCCn1c(=O)c([N+](=O)[O-])c(N2CCN(C(c3ccccc3)c3ccccc3)CC2)c2ncccc21` [Example 177, 4-(4-benzhydrylpiperazin-1-yl)-1-butyl-3-nitro-1,5-naphthyridin-2(1H)-one], the IC50 at human DGKα is > 240 µM; on human DGKζ (setting [1]), 9.7 µM.
`Cc1ccc2c(n1)c(N1CCN(C(C)c3ccc(F)cc3)CC1)c(Br)c(=O)n2C` (stereo not drawn) [Example 224, 3-bromo-4-(4-(1-(4-fluorophenyl)ethyl)piperazin-1-yl)-1,6-dimethyl-1,5-naphthyridin-2(1H)-one]: the IC50 on human DGKα is 0.14 µM; on human DGKζ (setting [1]), 20 µM.
Consider `Cc1ccc(CN2CCN(c3c(C#N)c(=O)n(C)c4ccc(Br)nc34)CC2)c(O)c1` [Example 372, 6-bromo-4-{4-[(2-hydroxy-4-methylphenyl)methyl]piperazin-1-yl}-1-methyl-2-oxo-1,2-dihydro-1,5-naphthyridine-3-carbonitrile], for which the IC50 came out at 0.078 µM against human DGKα and 8.8 µM on human DGKζ (setting [1]).
For `Cc1ccc(CN2CCN(c3c(C#N)c(=O)n(C)c4ccc(Cl)nc34)CC2)cc1` [Example 386, 6-chloro-1-methyl-4-{4-[(4-methylphenyl)methyl]piperazin-1-yl}-2-oxo-1,2-dihydro-1,5-naphthyridine-3-carbonitrile] the same measures were 0.26 µM and 6.7 µM.
For `Cc1ccc2c(n1)c(N1CCN(Cc3cccc(Cl)c3O)CC1)c(C#N)c(=O)n2C` [Example 389, 4-{4-[(3-chloro-2-hydroxyphenyl)methyl]piperazin-1-yl}-1,6-dimethyl-2-oxo-1,2-dihydro-1,5-naphthyridine-3-carbonitrile], in that order: 1.4 µM and 9.4 µM.
For `Cc1cccc(CN2CCN(c3c(C#N)c(=O)n(C)c4ccc(Cl)nc34)CC2)c1O` [Example 391, 6-chloro-4-{4-[(2-hydroxy-3-methylphenyl)methyl]piperazin-1-yl}-1-methyl-2-oxo-1,2-dihydro-1,5-naphthyridine-3-carbonitrile] the same measures were 1.8 µM and 2.1 µM.
Turning to `Cn1c(=O)c(C#N)c(N2CCN(Cc3cccc4ccccc34)CC2)c2nc(C#N)ccc21` [Example 404, 5-methyl-8-{4-[(naphthalen-1-yl)methyl]piperazin-1-yl}-6-oxo-5,6-dihydro-1,5-naphthyridine-2,7-dicarbonitrile], the results for the IC50 against human DGKα and at human DGKζ (setting [1]) were 4.9 µM and 3.9 µM, respectively.
For `Cn1c(=O)c([N+](=O)[O-])c(N2CCN(Cc3cccc4ccccc34)CC2)c2nc(C#N)ccc21` [Example 415, 5-methyl-8-{4-[(naphthalen-1-yl)methyl]piperazin-1-yl}-7-nitro-6-oxo-5,6-dihydro-1,5-naphthyridine-2-carbonitrile], in that order: 0.65 µM and 0.66 µM.
Take `Cc1ccc(CN2CCN(c3c(C#N)c(=O)n(C)c4ccc(Cl)nc34)CC2)c(F)c1` [Example 423, 6-chloro-4-{4-[(2-fluoro-4-methylphenyl)methyl]piperazin-1-yl}-1-methyl-2-oxo-1,2-dihydro-1,5-naphthyridine-3-carbonitrile]: the IC50 came out at 2.2 µM against human DGKα and 33 µM on human DGKζ (setting [1]).
`COc1cc(C#N)ccc1CN1CCN(c2c(C#N)c(=O)n(C)c3ccc(Cl)nc23)CC1` [Example 424, 6-chloro-4-{4-[(4-cyano-2-methoxyphenyl)methyl]piperazin-1-yl}-1-methyl-2-oxo-1,2-dihydro-1,5-naphthyridine-3-carbonitrile]: the IC50 against human DGKα was determined as 1.4 µM; at human DGKζ (setting [1]), 27 µM.
For `Cn1c(=O)c(C#N)c(N2CCN(C(C)(C)c3ccc(F)cc3)CC2)c2nc(Cl)ccc21` [Example 425, 6-chloro-4-{4-[2-(4-fluorophenyl)propan-2-yl]piperazin-1-yl}-1-methyl-2-oxo-1,2-dihydro-1,5-naphthyridine-3-carbonitrile] the same measures were 20 µM and > 240 µM.
